Results published in PMC3149900 (Chemical biology & drug design, 2010).

Conditions: PAMPA

CC(=O)CC(c1ccccc1)c1c(O)c2ccccc2oc1=O (stereo not shown) [Warfarin, warfarin]
Log (Pe): −4.95
